Experiments:
Assay in all cases: Cell proliferation assay ([3H]-thymidine)
Format in all cases: cell-based
L363 = L363 (MM)
Method: (§1) The antiproliferative effects of INCB053914 on hematologic tumor cells were investigated using assays described in the Supporting Information (S2 File).
(§2) Cell proliferation assays. […] After 3 to 4 days, [^3H]-thymidine (1 μCi/well) (PerkinElmer) in PBS (10 μl) was added to the cell culture for an additional 12 hours. The incorporated radioactivity was separated by filtration with water through GF/B filters (Packard Bioscience, Meriden, Connecticut) and measured by liquid scintillation counting with a TopCount (Packard Bioscience).

OPM-2 = OPM-2 (MM)
Method: as §1, §2

KMS-12-BM = conditions: Homo sapiens; KMS-12-BM (MM); read-out: Mean (± SD) GI50
Method: as §1, §2

KMS-11 = KMS-11 (MM)
Method: as §1, §2

Jurkat = Jurkat (T-ALL)
Method: as §1, §2

RPMI8226 = RPMI8226 (MM)
Method: as §1, §2

INA-6 = INA-6 (MM)
Method: as §1, §2

EOL = EOL (AML)
Method: as §1, §2

OCI-LY-10 = OCI-LY-10 (DLBCL)
Method: as §1, §2

WSU-NHL = WSU-NHL (DLBCL)
Method: as §1, §2

NOMO1 = NOMO1 (AML)
Method: as §1, §2

KMS-12-PE = KMS-12-PE (MM)
Method: as §1, §2

KMS-34 = KMS-34 (MM)
Method: as §1, §2

F36P = F36P (AML)
Method: as §1, §2

PL-21 = PL-21 (AML); read-out: Mean (± SD) GI50
Method: as §1, §2

JM-1 = JM-1 (T-ALL)
Method: as §1, §2

OCI-LY-3 = conditions: Homo sapiens, OCI-Ly3; OCI-LY-3 (DLBCL); read-out: Mean (± SD) GI50
Method: as §1, §2

KARPASS-422 = conditions: read-out: Mean (± SD) GI50
Method: as §1, §2

Toledo = Toledo (DLBCL)
Method: as §1, §2

KG-1a = KG-1a (AML)
Method: as §1, §2

KMS-28-BM = KMS-28-BM (MM)
Method: as §1, §2

HBL-1 = conditions: HBL1; HBL-1 (DLBCL); read-out: Mean (± SD) GI50
Method: as §1, §2

Pfeiffer = Pfeiffer (DLBCL)
Method: as §1, §2

HL-60 = conditions: Homo sapiens; HL-60 (AML); read-out: Mean (± SD) GI50
Method: as §1, §2

JVM2 = JVM2 (MCL)
Method: as §1, §2

Kasumi-3 = Kasumi-3 (AML)
Method: as §1, §2

RPMI-6666 = conditions: Homo sapiens; RPMI-6666 (HL); read-out: Mean (± SD) GI50
Method: as §1, §2

MM1.S = MM1.S (MM)
Method: as §1, §2

GDM-1 = conditions: Homo sapiens; GDM-1 (AML); read-out: Mean (± SD) GI50
Method: as §1, §2

SKM-1 = conditions: Homo sapiens; SKM-1 (AML); read-out: Mean (± SD) GI50
Method: as §1, §2

Reh = Reh (T-ALL)
Method: as §1, §2

[1] = Homo sapiens, read-out: Mean (± SD) GI50

C[C@H]1CN(c2c(NC(=O)c3ccc(F)c(-c4c(F)cccc4F)n3)cnc3c2CC[C@H]3O)C[C@@H](N)[C@@H]1O.O=P(O)(O)O [INCB053914, N-((R)-4-((3R,4R,5S)-3-amino-4-hydroxy-5-methylpiperidin-1-yl)-7-hydroxy-6,7-dihydro-5H-cyclopenta[b]pyridin-3-yl)-6-(2,6-difluorophenyl)-5-fluoropicolinamide phosphate]
GI50 (L363; Homo sapiens, L-363, read-out: Mean (± SD) GI50): 115 ± 89.4 nM
Mean (SD) maximum inhibition (L363): 90.3 ± 8.1%
GI50 (OPM-2; [1]): 123 ± 4.9 nM
Mean (SD) maximum inhibition (OPM-2): 87.5 ± 8.0%
GI50 (KMS-12-BM): 34.2 ± 19.9 nM
GI50 (KMS-11; [1]): 81.8 ± 8.1 nM
Mean (SD) maximum inhibition (KMS-11): 93.0 ± 2.5%
GI50 (Jurkat; [1]): 931 ± 800 nM
Mean (SD) maximum inhibition (Jurkat): 66.0 ± 7.0%
GI50 (RPMI8226; Homo sapiens, RPMI-8226, read-out: Mean (± SD) GI50): 230 ± 132 nM
Mean (SD) maximum inhibition (RPMI8226): 96.8 ± 2.2%
Mean (SD) maximum inhibition (INA-6): 99.0 ± 0.2%
GI50 (INA-6; read-out: Mean (± SD) GI50): 24.8 ± 4.6 nM
Mean (SD) maximum inhibition (EOL): 99.5 ± 0.6%
GI50 (EOL; read-out: Mean (± SD) GI50): 18.5 ± 6.1 nM
GI50 (OCI-LY-10; Homo sapiens, OCI-Ly10, read-out: Mean (± SD) GI50): 41.7 ± 29.4 nM
Mean (SD) maximum inhibition (OCI-LY-10): 96.3 ± 5.5%
GI50 (WSU-NHL; [1]): 1270 nM
Mean (SD) maximum inhibition (WSU-NHL): 76.8 ± 10.5%
GI50 (NOMO1; Homo sapiens, NOMO-1, read-out: Mean (± SD) GI50): 35.9 ± 9.3 nM
Mean (SD) maximum inhibition (NOMO1): 84.6 ± 4.0%
GI50 (KMS-12-PE; [1]): 89.7 ± 50.9 nM
Mean (SD) maximum inhibition (KMS-12-PE): 97.0 ± 4.7%
Mean (SD) maximum inhibition (KMS-34): 98.8 ± 0.5%
GI50 (KMS-34; read-out: Mean (± SD) GI50): 87.1 ± 28 nM
Mean (SD) maximum inhibition (F36P): 94.7 ± 2.5%
GI50 (F36P; read-out: Mean (± SD) GI50): 76.1 ± 36.7 nM
GI50 (PL-21): > 3000 nM
GI50 (JM-1; Homo sapiens, JM1, read-out: Mean (± SD) GI50): 19.5 ± 15.1 nM
Mean (SD) maximum inhibition (JM-1): 94.3 ± 4.9%
GI50 (OCI-LY-3): > 3000 nM
GI50 (KARPASS-422): > 3000 nM
GI50 (Toledo; [1]): 70.7 ± 25.1 nM
Mean (SD) maximum inhibition (Toledo): 97.6 ± 1.5%
GI50 (KG-1a; [1]): 14.3 ± 4.9 nM
Mean (SD) maximum inhibition (KG-1a): 94.5 ± 1.5%
Mean (SD) maximum inhibition (KMS-28-BM): 86.0 ± 3.7%
GI50 (KMS-28-BM; read-out: Mean (± SD) GI50): 36.7 ± 9.9 nM
GI50 (HBL-1): > 3000 nM
GI50 (Pfeiffer; [1]): 19.5 nM
Mean (SD) maximum inhibition (Pfeiffer): 90.5 ± 6.7%
GI50 (HL-60): > 3000 nM
GI50 (JVM2; Homo sapiens, JVM-2, read-out: Mean (± SD) GI50): 290 ± 291 nM
Mean (SD) maximum inhibition (JVM2): 63.0 ± 8.7%
Mean (SD) maximum inhibition (Kasumi-3): 84.3 ± 7.2%
GI50 (Kasumi-3; read-out: Mean (± SD) GI50): 4.9 nM
GI50 (RPMI-6666): > 3000 nM
GI50 (MM1.S; [1]): 55.4 ± 38.1 nM
Mean (SD) maximum inhibition (MM1.S): 88.3 ± 3.1%
GI50 (GDM-1): > 3000 nM
GI50 (SKM-1): > 3000 nM
GI50 (Reh; [1]): 33.7 ± 24.3 nM
Mean (SD) maximum inhibition (Reh): 94.3 ± 5.7%

— publication PMC6013247, “Preclinical characterization of INCB053914, a novel pan-PIM kinase inhibitor, alone and in combination with anticancer agents, in models of hematologic malignancies” (PLoS ONE, 2018)
